The values that follow come from US12637428B2, “Isoquinoline derivatives as SIK2 inhibitors” (Cancer Research Technology Limited, priority 2019, dated 2026).

In general, Ki refers to a measure of affinity in units of concentration, obtained from inhibition or displacement. High values mean weaker binding, low ones tighter binding.

Common to all, as to format: biochemical
In one experiment the target is T1, Abl (Homo sapiens, UniProt P00519).
T1 construct: purchased Life Technologies
In words: Abl kinase assay, IMAP fluorescence polarization. Conditions: 50 or 100 μM ATP, average. The protocol: (§1) SIK2, SIK1, SIK3, Abl, Src and EPHA2 Kinase Assays
(§2) SIK2, SIK1, SIK3, Abl, Src and EPHA2 assays were performed using an IMAP fluorescence polarization assay format (Molecular Devices Inc.). 0.6-13 nM of each kinase (Life Technologies) was incubated for 60 min at room temperature with 100 nM of either FAM-Abltide, FAM-Srctide or FAM-HDAC protein derived peptide (synthesized by Alta Biosciences, Birmingham UK). Assays were carried out in the presence of 50 or 100 μM ATP in either 20 mM Tris buffer (pH 7.2) containing 4 mM MgCl2, 0.2% BSA and 2 mM DTT (SIK2, SIK1, SIK3, Abl, Src); or 20 mM Tris buffer (pH 8.5) containing 20 mM MgCl2, 0.5% BSA, 0.2% Triton and 5 mM DTT (EPHA2). Typically, dose response analyses were performed over concentration ranges from 0.00005-1 μM. Reactions were stopped by adding 2 assay volumes of 0.25% (v/v) IMAP binding reagent in either an 85:15 ratio (SIK2, SIK1, SIK3, Abl, EPHA2) or 30:70 ratio (Src) of IMAP binding buffers A and B (Molecular Devices). After incubation to allow the detection reagents to bind to the phosphorylated peptide, fluorescence polarization was measured on a Tecan Infinite plate reader at excitation (470 nm) and emission (530 nm) wavelengths. Inhibition was calculated using no inhibitor and no enzyme controls as 0 and 100% inhibition, respectively.
(§3) Table 3 provides details of the inhibitory constant (nM) of compounds of the invention at SIK1, SIK2 and SIK3 and other kinases.
(In general: In fluorescence polarisation assays a small probe gives low polarisation when free and higher when bound to something large.)

Another experiment deals with T2, SIK1 (Homo sapiens, UniProt P57059).
T2 construct: purchased Life Technologies
Kind of experiment: SIK1 kinase assay, IMAP fluorescence polarization. Conditions: 50 or 100 μM ATP, average. The protocol: as §1, §2, §3

For another experiment, the target named is T3, SIK2 (Homo sapiens, UniProt Q9H0K1).
T3 construct: purchased Life Technologies
In words: SIK2 kinase assay, IMAP fluorescence polarization. Conditions: 50 or 100 μM ATP, average. The method, then: as §1, §2, §3

Another experiment deals with T4, Src (Homo sapiens, UniProt P12931).
T4 construct: purchased Life Technologies
Kind of experiment: Src kinase assay, IMAP fluorescence polarization. The conditions noted are these: 50 or 100 μM ATP, average. The protocol: as §1, §2, §3

In another experiment the target is T5, EPHA2 (Homo sapiens, UniProt P29317).
T5 construct: purchased Life Technologies
In words: EPHA2 kinase assay, IMAP fluorescence polarization. The conditions noted are these: 50 or 100 μM ATP, Tris pH 8.5, average. The protocol:
as §1, §2, §3

A further experiment addresses T6, SIK3 (Homo sapiens, UniProt Q9Y2K2).
T6 construct: purchased Life Technologies
In words: SIK3 kinase assay, IMAP fluorescence polarization. The conditions noted are these: 50 or 100 μM ATP, average. The protocol:
as §1, §2, §3

T5 sequence (P29317 24-976): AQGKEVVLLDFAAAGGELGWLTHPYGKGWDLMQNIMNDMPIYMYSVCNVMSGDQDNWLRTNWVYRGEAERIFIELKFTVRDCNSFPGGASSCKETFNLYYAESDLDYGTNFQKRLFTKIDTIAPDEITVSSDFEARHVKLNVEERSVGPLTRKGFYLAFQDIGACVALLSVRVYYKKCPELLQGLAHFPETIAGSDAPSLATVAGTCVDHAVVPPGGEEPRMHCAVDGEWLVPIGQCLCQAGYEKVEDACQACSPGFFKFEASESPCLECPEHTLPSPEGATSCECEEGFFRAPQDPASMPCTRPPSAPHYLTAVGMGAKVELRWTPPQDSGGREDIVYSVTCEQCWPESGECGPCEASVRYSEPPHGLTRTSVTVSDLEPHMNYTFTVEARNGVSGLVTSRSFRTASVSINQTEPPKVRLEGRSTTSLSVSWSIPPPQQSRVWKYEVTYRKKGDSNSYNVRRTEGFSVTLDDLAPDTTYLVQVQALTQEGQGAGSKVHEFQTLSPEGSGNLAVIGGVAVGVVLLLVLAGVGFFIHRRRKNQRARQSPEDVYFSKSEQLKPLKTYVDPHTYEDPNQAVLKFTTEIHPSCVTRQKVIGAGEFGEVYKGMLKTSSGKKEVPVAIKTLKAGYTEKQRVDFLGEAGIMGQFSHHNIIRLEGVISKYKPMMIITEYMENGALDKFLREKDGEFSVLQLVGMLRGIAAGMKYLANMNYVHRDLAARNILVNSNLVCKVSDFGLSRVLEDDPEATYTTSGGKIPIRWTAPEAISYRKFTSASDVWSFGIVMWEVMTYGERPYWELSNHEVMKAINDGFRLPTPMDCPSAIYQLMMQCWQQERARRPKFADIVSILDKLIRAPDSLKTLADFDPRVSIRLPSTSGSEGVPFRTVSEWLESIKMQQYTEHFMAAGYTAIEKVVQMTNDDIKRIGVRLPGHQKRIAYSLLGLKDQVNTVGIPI
T4 sequence (P12931 whole entry): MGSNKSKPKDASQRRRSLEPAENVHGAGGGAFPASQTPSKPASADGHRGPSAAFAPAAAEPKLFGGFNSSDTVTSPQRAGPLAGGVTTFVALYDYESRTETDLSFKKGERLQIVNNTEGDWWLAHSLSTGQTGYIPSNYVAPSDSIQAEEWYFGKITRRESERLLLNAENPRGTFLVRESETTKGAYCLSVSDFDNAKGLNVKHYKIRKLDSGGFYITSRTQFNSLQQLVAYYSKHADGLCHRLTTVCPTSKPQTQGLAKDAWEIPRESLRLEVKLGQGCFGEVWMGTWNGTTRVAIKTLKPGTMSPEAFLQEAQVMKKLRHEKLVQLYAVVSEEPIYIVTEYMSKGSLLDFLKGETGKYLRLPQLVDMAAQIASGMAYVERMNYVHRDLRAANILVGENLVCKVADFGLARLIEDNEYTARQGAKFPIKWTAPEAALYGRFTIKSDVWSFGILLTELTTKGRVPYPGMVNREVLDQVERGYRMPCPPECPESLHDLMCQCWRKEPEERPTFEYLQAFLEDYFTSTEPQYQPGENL
T1 sequence (P00519 whole entry): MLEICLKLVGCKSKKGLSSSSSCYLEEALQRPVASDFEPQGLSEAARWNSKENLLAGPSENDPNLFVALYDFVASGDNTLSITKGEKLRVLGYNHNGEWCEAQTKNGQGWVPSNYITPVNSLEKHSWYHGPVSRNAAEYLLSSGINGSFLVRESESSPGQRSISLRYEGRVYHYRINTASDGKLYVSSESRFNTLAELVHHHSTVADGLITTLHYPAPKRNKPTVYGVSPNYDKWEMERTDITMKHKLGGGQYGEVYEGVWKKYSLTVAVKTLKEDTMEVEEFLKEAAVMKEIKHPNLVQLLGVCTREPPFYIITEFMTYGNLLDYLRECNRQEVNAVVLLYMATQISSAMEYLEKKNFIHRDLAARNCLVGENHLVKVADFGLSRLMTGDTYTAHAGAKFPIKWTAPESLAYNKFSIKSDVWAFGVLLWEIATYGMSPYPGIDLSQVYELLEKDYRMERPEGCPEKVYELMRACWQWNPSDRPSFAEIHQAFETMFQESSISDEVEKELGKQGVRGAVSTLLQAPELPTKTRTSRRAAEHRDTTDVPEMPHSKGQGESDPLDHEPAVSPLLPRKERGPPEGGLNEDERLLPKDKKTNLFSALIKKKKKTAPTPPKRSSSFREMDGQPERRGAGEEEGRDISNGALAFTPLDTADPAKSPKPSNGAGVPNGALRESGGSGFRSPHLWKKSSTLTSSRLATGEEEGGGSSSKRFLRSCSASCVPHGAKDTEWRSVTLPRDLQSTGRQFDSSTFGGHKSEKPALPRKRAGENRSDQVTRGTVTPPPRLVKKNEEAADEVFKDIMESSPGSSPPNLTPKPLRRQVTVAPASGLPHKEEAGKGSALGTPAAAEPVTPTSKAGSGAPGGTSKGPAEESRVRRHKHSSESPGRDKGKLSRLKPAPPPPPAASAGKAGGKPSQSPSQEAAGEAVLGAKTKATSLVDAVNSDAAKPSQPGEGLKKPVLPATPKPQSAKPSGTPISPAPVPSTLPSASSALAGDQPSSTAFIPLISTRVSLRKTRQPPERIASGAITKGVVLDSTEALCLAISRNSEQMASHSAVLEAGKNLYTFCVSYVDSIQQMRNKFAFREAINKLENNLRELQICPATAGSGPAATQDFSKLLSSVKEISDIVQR
T2 sequence (P57059 whole entry): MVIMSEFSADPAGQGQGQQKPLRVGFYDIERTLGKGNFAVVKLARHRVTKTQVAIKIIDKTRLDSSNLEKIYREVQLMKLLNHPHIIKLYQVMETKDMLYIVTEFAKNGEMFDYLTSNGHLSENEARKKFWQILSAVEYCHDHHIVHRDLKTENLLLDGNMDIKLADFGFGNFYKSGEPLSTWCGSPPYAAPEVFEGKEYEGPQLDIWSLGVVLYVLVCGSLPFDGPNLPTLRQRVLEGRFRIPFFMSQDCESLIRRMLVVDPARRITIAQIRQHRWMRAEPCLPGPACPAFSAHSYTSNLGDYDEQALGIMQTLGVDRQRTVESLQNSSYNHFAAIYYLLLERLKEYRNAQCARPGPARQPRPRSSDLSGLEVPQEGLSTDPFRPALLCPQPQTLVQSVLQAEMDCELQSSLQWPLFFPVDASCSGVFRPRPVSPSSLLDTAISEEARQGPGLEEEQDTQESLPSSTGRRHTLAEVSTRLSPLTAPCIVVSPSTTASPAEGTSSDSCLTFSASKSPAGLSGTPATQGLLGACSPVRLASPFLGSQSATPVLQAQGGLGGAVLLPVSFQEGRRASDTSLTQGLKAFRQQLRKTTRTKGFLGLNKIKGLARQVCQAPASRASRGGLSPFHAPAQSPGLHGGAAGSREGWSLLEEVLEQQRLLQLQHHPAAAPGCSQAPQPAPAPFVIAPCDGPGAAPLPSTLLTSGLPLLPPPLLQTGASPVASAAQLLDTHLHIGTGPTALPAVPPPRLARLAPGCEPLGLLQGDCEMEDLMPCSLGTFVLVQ
T6 sequence (Q9Y2K2 whole entry): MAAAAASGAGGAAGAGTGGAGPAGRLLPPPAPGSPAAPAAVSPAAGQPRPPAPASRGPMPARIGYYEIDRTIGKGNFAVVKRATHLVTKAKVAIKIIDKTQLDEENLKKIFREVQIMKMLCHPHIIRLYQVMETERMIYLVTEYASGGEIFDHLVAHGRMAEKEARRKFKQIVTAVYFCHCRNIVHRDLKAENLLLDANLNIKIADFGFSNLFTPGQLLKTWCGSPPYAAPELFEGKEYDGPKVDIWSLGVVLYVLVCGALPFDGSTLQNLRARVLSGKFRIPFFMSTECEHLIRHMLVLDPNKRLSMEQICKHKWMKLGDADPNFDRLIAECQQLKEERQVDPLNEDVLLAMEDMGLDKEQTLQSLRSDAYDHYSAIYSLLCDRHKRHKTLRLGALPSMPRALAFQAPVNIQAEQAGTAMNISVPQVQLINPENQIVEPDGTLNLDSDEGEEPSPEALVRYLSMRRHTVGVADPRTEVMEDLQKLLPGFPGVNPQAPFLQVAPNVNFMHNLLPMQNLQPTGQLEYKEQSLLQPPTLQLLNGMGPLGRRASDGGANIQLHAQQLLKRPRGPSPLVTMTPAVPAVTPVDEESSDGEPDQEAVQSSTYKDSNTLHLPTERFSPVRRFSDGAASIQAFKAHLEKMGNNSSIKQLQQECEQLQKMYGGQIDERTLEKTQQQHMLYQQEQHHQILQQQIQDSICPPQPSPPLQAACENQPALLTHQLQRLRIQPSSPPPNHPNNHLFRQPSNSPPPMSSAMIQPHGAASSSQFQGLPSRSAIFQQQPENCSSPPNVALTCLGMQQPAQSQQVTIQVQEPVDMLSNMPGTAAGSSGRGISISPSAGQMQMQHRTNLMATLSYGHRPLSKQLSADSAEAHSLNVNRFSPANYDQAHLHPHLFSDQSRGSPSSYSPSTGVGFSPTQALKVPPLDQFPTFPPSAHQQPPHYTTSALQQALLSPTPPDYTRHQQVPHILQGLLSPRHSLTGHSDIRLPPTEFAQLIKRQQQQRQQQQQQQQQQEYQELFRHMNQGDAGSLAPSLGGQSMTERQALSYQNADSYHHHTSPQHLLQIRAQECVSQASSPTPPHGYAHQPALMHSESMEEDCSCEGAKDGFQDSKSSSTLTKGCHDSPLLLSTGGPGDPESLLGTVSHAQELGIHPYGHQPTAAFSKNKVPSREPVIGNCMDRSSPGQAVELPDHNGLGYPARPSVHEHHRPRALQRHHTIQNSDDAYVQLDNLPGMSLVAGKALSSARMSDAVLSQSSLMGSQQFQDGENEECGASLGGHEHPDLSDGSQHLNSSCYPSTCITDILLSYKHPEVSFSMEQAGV

`Cc1cccc(F)c1-c1cc(C(=O)NC2CN(C)C2)c2cc(N)ncc2c1` [Example 100, 3-amino-7-(2-fluoro-6-methyl-phenyl)-N-(1-methylazetidin-3-yl)isoquinoline-5-carboxamide]: the Ki was determined as 3.65 nM at Abl; 11.8 nM on SIK1; 4.41 nM at SIK2; 41.4 nM on Src; 131 nM on EPHA2; 61.4 nM on SIK3.

For `CC(=O)N[C@H]1CCN(c2cc(-c3c(C)cccc3F)cc3cnc(N)cc23)C1` [Example 112, N-[(3S)-1-[3-Amino-7-(2-fluoro-6-methyl-phenyl)-5-isoquinolyl]pyrrolidin-3-yl]acetamide], the Ki is 124 nM on Abl; 91.6 nM at SIK1; 14.7 nM on SIK2; over 10000 nM on Src; over 10000 nM at EPHA2; 431 nM on SIK3.

With `CNC1CN(c2cc(-c3c(C)cccc3F)cc3cnc(N)cc23)C1` [Example 29, 7-(2-Fluoro-6-methyl-phenyl)-5-[3-(methylamino)azetidin-1-yl]isoquinolin-3-amine], the Ki at Abl worked out at 19.3 nM; at SIK1, 0.381 nM; on SIK2 it was 0.056 nM; at Src, 97.4 nM; on EPHA2, 165 nM; at SIK3, 0.447 nM.

`Cc1cccc(F)c1-c1cc(N2CCC[C@@H](N(C)C)C2)c2cc(N)ncc2c1` [Example 84, 5-[(3R)-3-(dimethylamino)-1-piperidyl]-7-(2-fluoro-6-methyl-phenyl)isoquinolin-3-amine]: the Ki at Abl is 49.4 nM; on SIK1, 0.409 nM; at SIK2, 0.0819 nM; on Src, 274 nM; on EPHA2, over 1000 nM; at SIK3, 2.23 nM.

Take `Cc1cccc(F)c1-c1cc(NC(=O)C2CCNCC2)c2cc(N)ncc2c1` [Example 44, N-[3-Amino-7-(2-fluoro-6-methyl-phenyl)-5-isoquinolyl]piperidine-4-carboxamide]: the Ki is 85.2 nM on Abl; 15.4 nM at SIK1; 5.91 nM at SIK2; 291 nM on Src; 638 nM on EPHA2; 36.9 nM at SIK3.

`Cc1cccc(F)c1-c1cc(NC[C@@H]2CCCCN2C)c2cc(N)ncc2c1` [Example 78, 7-(2-fluoro-6-methyl-phenyl)-N5-[[(2S)-1-methyl-2-piperidyl]methyl]isoq uinoline-3,5-diamine]: the Ki was found to be 6.85 nM on Abl; 0.433 nM on SIK1; 0.0935 nM on SIK2; 43.3 nM on Src; 119 nM on EPHA2; 1.6 nM on SIK3.

For the molecule `Cc1cccc(F)c1-c1cc2cnc(N)cc2c(NC2CCNCC2)c1F` [Example 134, 6-Fluoro-7-(2-fluoro-6-methyl-phenyl)-N5-(4-piperidyl)isoquinoline-3,5-diamine], the Ki on Abl is 1.94 nM; at SIK1, 0.558 nM; at SIK2, 0.132 nM; at Src, 12.3 nM; at EPHA2 it was 25.1 nM; on SIK3 it was 0.452 nM.

In the case of `Cc1cccc(F)c1-c1cc(N[C@H]2CC[C@H](O)CC2)c2cc(N)ncc2c1` [Example 109, 4-[[3-amino-7-(2-fluoro-6-methyl-phenyl)-5-isoquinolyl]amino]cyclo hexanol], the Ki at Abl is 74.8 nM; at SIK1 it was 3.76 nM; on SIK2, 1.6 nM; at Src, 3330 nM; at EPHA2, over 1000 nM; on SIK3 it was 14.9 nM.

In the case of `Cc1cccc(Cl)c1-c1cc(NC2CCN(C)CC2)c2cc(N)ncc2c1` [Example 62, 7-(2-Chloro-6-methyl-phenyl)-N5-(1-methyl-4-piperidyl)isoquinoline-3,5-diamine], the Ki at Abl came to 209 nM; at SIK1, 0.492 nM; at SIK2 it was 0.133 nM; on Src it was 313 nM; at EPHA2 it was 199 nM; at SIK3, 2.94 nM.

Take `Cc1cccc(F)c1-c1cc(C(=O)NC2CCNCC2)c2cc(N)ncc2c1` [Example 52, 3-Amino-7-(2-fluoro-6-methyl-phenyl)-N-(4-piperidyl)isoquinoline-5-carboxamide]: the Ki was 12.1 nM at Abl; 5.45 nM on SIK1; 3.09 nM on SIK2; 60 nM on Src; 23.9 nM at EPHA2; 11.5 nM at SIK3.

Take `Cc1cccc(F)c1-c1cc(N2CCC[C@H](N(C)C)C2)c2cc(N)ncc2c1` [Example 82, 5-[(3S)-3-(dimethylamino)-1-piperidyl]-7-(2-fluoro-6-methyl-phenyl)isoquinolin-3-amine]: the Ki is 10.4 nM on Abl; 1.25 nM on SIK1; 0.269 nM on SIK2; 93.9 nM on Src; over 1000 nM on EPHA2; 10.3 nM at SIK3.

On to `Cc1cccc(F)c1-c1cc(N[C@@H]2CCCNC2)c2cc(N)ncc2c1` [Example 25, 7-(2-fluoro-6-methyl-phenyl)-N5-[(3R)-3-piperidyl]isoquinoline-3,5-diamine], for which the Ki is 4.96 nM on Abl; 0.546 nM at SIK1; 0.132 nM on SIK2; over 1000 nM on Src; over 1000 nM at EPHA2; 1.28 nM on SIK3.

For the molecule `Cc1cccc(F)c1-c1cc(NCC2CNC2)c2cc(N)ncc2c1` [Example 11, N5-(azetidin-3-ylmethyl)-7-(2-fluoro-6-methyl-phenyl)isoquinoline-3,5-diamine], the Ki on Abl amounted to 0.921 nM; at SIK1 it was 0.417 nM; on SIK2, 0.0672 nM; on Src, 23.5 nM; at EPHA2 it was 95.1 nM; on SIK3, 0.195 nM.

For `Cc1cccc(F)c1-c1cc(NCC2CN(C)C2)c2cc(N)ncc2c1` [Example 72, 7-(2-fluoro-6-methyl-phenyl)-N5-[(1-methylazetidin-3-yl)methyl] isoquinoline-3,5-diamine], the Ki was 1.83 nM at Abl; 0.627 nM at SIK1; 0.117 nM on SIK2; 40.1 nM at Src; 153 nM at EPHA2; 1.29 nM on SIK3.

For the molecule `Cc1cccc(F)c1-c1cc(OC2CCNCC2)c2cc(N)ncc2c1` [Example 46, 7-(2-Fluoro-6-methyl-phenyl)-5-(4-piperidyloxy)isoquinolin-3-amine], the Ki on Abl worked out at 3.63 nM; on SIK1 it was 0.192 nM; at SIK2 it was 0.0203 nM; at Src, 95.8 nM; on EPHA2, 39.2 nM; on SIK3, 0.125 nM.

`Cc1cccc(F)c1-c1cc(C2CCN(C)CC2)c2cc(N)ncc2c1` [Example 117, 7-(2-Fluoro-6-methyl-phenyl)-5-(1-methyl-4-piperidyl)isoquinolin-3-amine]: the inhibition constant Ki at Abl is 12.3 nM; at SIK1, 0.678 nM; on SIK2, 0.0546 nM; at Src, over 1000 nM; at EPHA2, over 1000 nM; on SIK3, 0.473 nM.

In the case of `Cc1cccc(Cl)c1-c1cc(NC2CCNCC2)c2cc(N)ncc2c1` [Example 30, 7-(2-Chloro-6-methyl-phenyl)-N5-(4-piperidyl)isoquinoline-3,5-diamine], the Ki at Abl came out at 36.1 nM; on SIK1 it was 0.474 nM; at SIK2 it was 0.335 nM; on Src it was 96.2 nM; on EPHA2, 65.5 nM; on SIK3 it was 2.92 nM.

As for `Cc1cccc(F)c1-c1cc(NC2CCNCC2)c2nc(N)ncc2c1` [Example 124, 6-(2-fluoro-6-methyl-phenyl)-N8-(4-piperidyl)quinazoline-2,8-diamine], the Ki was 6.13 nM at Abl; 0.338 nM at SIK1; 0.0472 nM at SIK2; 17.1 nM at Src; 48.6 nM at EPHA2; 0.354 nM at SIK3.

Turning to `Cc1cccc(F)c1-c1cc(NC2CCOCC2)c2cc(N)ncc2c1` [Example 110, 7-(2-Fluoro-6-methyl-phenyl)-N5-tetrahydropyran-4-yl-isoquinoline-3,5-diamine], the Ki at Abl was 56 nM; at SIK1, 55.5 nM; at SIK2 it was 6.97 nM; on Src it was over 10000 nM; on EPHA2, over 1000 nM; on SIK3 it was 78.1 nM.
